According to patent US11007169B2, “Cis-gnetin H and trans-gnetin H as therapeutic agents” (MIDDLE TENNESSEE STATE UNIVERSITY, priority 2014, dated 2021):

Tests used:
[1] = test system: HMEC cells (human mammary epithelial cells); assay: Inhibition of cell proliferation, AlamarBlue fluorescent assay, HMEC normal control; assay type: cell-based; conditions: for inhibitory effects on normal HMEC cells: 10 uM, up to 48 hours; for IC50: Homo sapiens, HMEC, 48 hours, AlamarBlue, normal cell line
Protocol: The cancer cell lines used in this study included human lung carcinoma (A549), human breast carcinoma (BT20 and MCF-7) and human osteosarcoma (U2OS), with the normal cell lines human peripheral lung epithelial cells (HPL1A) and human mammary epithelial cells (HMEC) serving as controls. A549, BT20, MCF-7, U2OS and HMEC cells were purchased from American Type Culture Collection (ATCC, USA), and HPL1A cells were obtained from Nagoya University, Japan. A549 and BT20 were grown in RPMI-1640 (Sigma), MCF-7 was grown in Dulbecco's Modified Eagle Medium (DMEM) (Sigma) supplemented with 0.01 mg/ml human recombinant insulin (Sigma), U2OS and HMEC were grown in McCoy's 5A (ATCC), and HPL1A was grown in DMEM/F-12K (Sigma). The mediums were supplemented with 10% Fetal Bovine Serum (FBS) (Gibco), 1% penicillin and streptomycin and incubated in a humidified atmosphere with 5% CO2 at 37° C.
The proliferation inhibition potential of cis- and trans-gnetin H was determined by a fluorescence dye staining method. Cells were seeded in a 96-well tissue culture-treated plate (BD Falcon) at a density of 4000 cells/well, and treated with cis- or trans-gnetin H for 48 hours. AlamarBlue dye (Invitrogen) was used to assess the viability of cells according to the manufacturer's instructions; the fluorescent intensity was read on a SpectraMax M2e microplate reader (Molecular Devices Inc.).
For the determination of IC50 values, cells were treated with a serial dilution (320 μM, 100 μM, 32 μM, 10 μM, 3.2 μM, and 0.32 μM) of cis- or trans-gnetin H for 48 hours. Cell viability was determined with AlamarBlue dye (Invitrogen) and the IC50 values were calculated using non-linear regression analysis.

[2] = Stability testing, 6 months in the dark at room temperature, HPLC; assay type: physicochemical; conditions: 6-month storage in the dark at room temperature, 1 mg/ml in methanol
Protocol: For stability testing, cis- and trans-gnetin H were dissolved with methanol to a concentration of 1 mg/ml. The stock solutions were sealed in a glass bottle and kept in the dark at room temperature for 6 months and then the purity of the two compounds was tested using the HPLC method previously described (He et al., J. Liq. Chromatog. Rel. Technol. 2013; 36:1708-1724). For conversion testing, cis- and trans-gnetin H were individually illuminated with a 12-watt fluorescent lamp for 2, 4 and 6 hours, and the compounds were identified using HPLC.

[3] = test system: caspase 3/7 in A549 cells; assay: Caspase 3/7 activation assay (Caspase-Glo 3/7); assay type: cell-based, human; conditions: 100 μM
Protocol: Caspase 3/7 activity was analyzed using an in-situ luminescent marker. A549 and BT20 cells were seeded in a white 96-well plate (Greiner) at a density of 8000 cells/well, and treated with 100 μM cis- or trans-gnetin H for 24 hours. Caspase activity was then determined using the Caspase-Glo 3/7 Assay (Promega) according to the manufacturer's instructions. The luminescence of each sample was measured using a SpectraMax M2e Microplate Reader (Molecular Devices Inc.).

[4] = test system: A549 cells; assay: Cell cycle analysis by flow cytometry, A549; assay type: cell-based, human; conditions: 100 μM, 24 hours
Protocol: A549 and BT20 cells were first synchronized in the G0 phase by culturing cells for 24 hours in serum-free medium and then treated with 100 μM cis- or trans-gnetin H for 24 hours, respectively. Cell cycle analysis was done using propidium iodide (PI) staining as described (An et al., Mol. Cancer Ther. 2007; 6:61-9) and the cells were analyzed on a Guava Flow Cytometer with InCyte software (Millipore).

[5] = test system: NF-κB nuclear translocation in A549 cells; assay: Inhibition of TNF-α activated NF-κB translocation, Arrayscan VTI HCS Reader; assay type: cell-based, human; conditions: 100 μM for 2 hrs, then 10 ng/ml TNF-α
Protocol: A549 cells were seeded in 96 well plates (BD Falcon) at a density of 4000 cells/well, and were treated with 100 μM cis- or trans-gnetin H for 2 hrs, followed by treatment of 10 ng/ml tumor necrosis factor-alpha (TNF-α) (Sigma). Untreated cells and cells treated with only 10 ng/ml TNF-α served as controls. Cells were fixed, permeabilized, and stained with Nuclear factor kappa B (NF-κB) primary antibody, Dylight 488 conjugated secondary antibody, and Hoechst 33342 dye, sequentially. The Hoechst and DyLight fluorophores respectively detect changes in nuclear morphology (blue fluorescence) and NF-κB distribution (green fluorescence). Images were acquired at different channels using suitable filters with a 20× objective and analyzed on the Arrayscan VTI HCS Reader (Thermo Scientific). The Nuclear Translocation BioApplication software (Thermo Scientific) was used for image acquisition and analysis. For each well, at least 400 cells were automatically acquired and analyzed. The translocation index was calculated by measuring the average intensity difference of NF-κB between the identified cytoplasmic region and nuclear region (MEAN_CircRingAvgIntenDiffCh2). Experiments were performed in triplicates.

[6] = test system: TNF-α in LPS-stimulated THP-1 cells; assay: Cytokine response by ELISA, TNF-α; assay type: cell-based, human; conditions: for IC50: Homo sapiens, THP-1, pretreated 1 h, LPS 4 h, ELISA; for inhibition of TNF-α: cis 12.5-50 μM, trans 8-30 μM, 20 ng/ml LPS, p<0.05
Protocol: (§1) THP-1 cells were maintained in RPMI 1640 medium supplemented with 10% complement-inactivated FBS and 1% penicillin/streptomycin (complete culture medium) at 37° C. with 5% CO2 supplemented. Cell concentrations were adjusted to desired concentrations for each experiment by centrifugation at 500×g for 5 min and resuspended in complete culture medium with 100 nM of PMA. Cell concentration was adjusted to 5×10^5 cells/ml for all assays and 2.5×10^5 cells/ml were used for NF-κB nuclear translocation assay. Cells were seeded onto 96-, 24-, or 12-well plates and incubated for 48 to 72 h to allow for differentiation. Cells were washed with serum-free RPMI 1640 medium before each experiment to remove the undifferentiated cells.
(§2) Differentiated THP-1 cells were pretreated with various concentrations of cis-gnetin H, trans-gnetin H, or 1 μM of dexamethasone for 1 h and stimulated with 20 ng/ml of LPS for 4 h. Dexamethasone is a synthetic glucocorticoid that suppresses cytokine response and was used as a positive control (Abraham et al., 2006, J. Exp. Med., 203:1883-9; Steer et al., J. Biol. Chem., 2000, 275(24):18432-40). Supernatants were collected for human cytokine ELISAs and the manufacturer's protocol was followed to assess the cytokine response. Cells remaining after the supernatant collection were tested for relative viability by Alamar Blue cytotoxicity assay as described earlier.

[7] = test system: IL-1β in LPS-stimulated THP-1 cells; assay: Cytokine response by ELISA, IL-1β; assay type: cell-based, human; conditions: cis 12.5-50 μM, trans 8-30 μM, 20 ng/ml LPS, p<0.05
Protocol: as §1, §2

[8] = test system: IL-8 in LPS-stimulated THP-1 cells; assay: Cytokine response by ELISA, IL-8; assay type: cell-based, human; conditions: cis 12.5-50 μM, trans 8-30 μM, 20 ng/ml LPS, p<0.05
Protocol: as §1, §2

| SMILES | inhibitory effects on normal HMEC cells [1] | IC50 [1] [µM] | chemical identity after storage [2] | activities of caspase 3/7 compared with untreated A549 cells [3] [fold] | G0-G1 subpopulation, A549 [4] | M and G2-S subpopulation, A549 [4] | TNF-α-induced NF-κB nuclear translocation [5] | IC50 [6] [µM] | inhibition of TNF-α [6] | inhibition of IL-1β [7] | inhibition of IL-8 [8] |
| --- | --- | --- | --- | --- | --- | --- | --- | --- | --- | --- | --- |
| Oc1ccc(/C=C\c2c3c(cc4c2[C@H](c2cc(O)cc(O)c2)[C@@H](c2ccc(O)cc2)O4)O[C@H](c2ccc(O)cc2)[C@H]3c2cc(O)cc(O)c2)cc1 [cis-gnetin H] | no such obvious inhibitory effects | 26.7 | no obvious changes | 3.65 | increased significantly | significant decrease | significant inhibition | 19 | significant inhibition | significant inhibition | significant inhibition |
| Oc1ccc(/C=C/c2c3c(cc4c2[C@H](c2cc(O)cc(O)c2)[C@@H](c2ccc(O)cc2)O4)O[C@H](c2ccc(O)cc2)[C@H]3c2cc(O)cc(O)c2)cc1 [trans-gnetin H] | no such obvious inhibitory effects | 25.9 | no obvious changes | 2.7 | increased significantly | significant decrease | significant inhibition | 6 | significant inhibition | significant inhibition | significant inhibition |
